{"source": "paper PMC9025336", "about": "(Antibiotics, 2022)", "key": {"[1]": {"test_system": "E. coli BL21 (DE3) RIL ribosome extract", "conditions": "values published for E. coli BL21 (DE3) RIL ribosome extract; read-out: Ki, cf-Api137; cited from earlier work"}, "[2]": {"test_system": "E. coli BL21 (DE3) RIL ribosome extract", "conditions": "values published for E. coli BL21 (DE3) RIL ribosome extract; read-out: Ki, cf-Onc112; cited from earlier work", "description": "Table 2 Antibacterial activities, dissociation (Kd), and inhibition constants (Ki) of ribosome binding obtained for all PrAMPs included in the current study for E. coli strains BW25113 (BW) and Rosetta DE3 pLysS (Ros). | column: Ki [µmol/L] *** / cf-Onc112"}, "[3]": {"test_system": "70S ribosome, ribosomal binding site of Api88", "test": "Fluorescence polarization competition with cf-Api88", "parameters": "species or system Escherichia coli", "conditions": "Figure S3, twice in triplicate", "method": "Ki was determined for ribosome extracts using cf-labeled and unlabeled peptides in ribosome preparation buffer. Black 384-well plates were prepared as described above. Unlabeled peptides or antibiotics (20 µL, 656 µmol/L) were added and 2-fold serially diluted in 23 wells in ribosome preparation buffer. A ribosome solution was prepared by adjusting the ribosome concentration to ~90% of the upper Kd plateau obtained for the cf-labeled peptide to be studied and added to each well (10 µL). After incubation (28 ± 1 °C, 90 min), the cf-labeled peptide (10 µL, 80 nmol/L) was added and incubated (28 ± 1 °C, 90 min). The fluorescence polarization was measured on a […] microplate reader in the top read position (λexc = 485 nm, λem = 535 nm) in triplicate on at least two different days. Data were fitted to a nonlinear, dose–response logistical transition equation [y= y0 + a/(1 + (x/x0)b)] using the Levenberg–Marquardt algorithm, with the half-maximal inhibition constants (IC50) represented by the x0 coefficients (GraphPad Prism for Windows v. 5.02, San Diego, CA, USA). Inhibition constants, Ki, were calculated as described by Mathias and Jung.\nPept ide Concent r at ion [ nM]\nFigure S3. Fluorescence polarization assay testing Api88 an d Api137 in competition with cf-Api88 and cf-Api137, respectively, for the corresponding ribosomal binding sites. Experiments were done twice in triplicates. […]"}, "[4]": {"test_system": "E. coli BL21 (DE3) RIL ribosome extract", "conditions": "values published for E. coli BL21 (DE3) RIL ribosome extract; read-out: Kd (printed in column Ros); cited from earlier work", "description": "Table 2 Antibacterial activities, dissociation (Kd), and inhibition constants (Ki) of ribosome binding obtained for all PrAMPs included in the current study for E. coli strains BW25113 (BW) and Rosetta DE3 pLysS (Ros). | column: Kd [µmol/L] ** / Ros"}, "E. coli BW25113 ΔsbmA": {"test_system": "E. coli BW25113 ΔsbmA", "type": "cell-based, Escherichia coli", "method": "(§1) The minimal inhibitory concentrations (MIC) were determined at least twice in triplicate using a liquid broth microdilution assay in sterile 96-well plates and a total volume of 100 μL per well. Aqueous peptide solutions were serially 2-fold diluted in 25% MHBII or 33% TSB medium in a volume of 50 µL. An overnight culture was diluted in 25% MHBII or 33% TSB medium to 1.5 × 10^7 CFU/mL, and an aliquot of 50 μL was added to each well. The final cell count in each well was 7.5 × 10^6 CFU/mL. The plates were incubated at 37 °C for 20 ± 2 h. The turbidity of each well was measured at a wavelength of 600 nm. The MIC was defined as the lowest peptide concentration where the turbidity was identical to medium only."}, "[5]": {"test_system": "E. coli BW25113 ΔsbmA +psbmA", "type": "cell-based, Escherichia coli", "method": "as §1"}, "[6]": {"test_system": "E. coli BL21 (DE3) sbmA::Tn10^Cm + psbmA_A31G/G219T", "type": "cell-based, Escherichia coli", "method": "as §1\n(§2) E. coli strain BL21(DE3) was randomly mutagenized by Tn10 insertion using the lambda phage lysate λNK1324 carrying a chloramphenicol resistance and grown on LB agar plates in the presence of chloramphenicol (15 µg/mL) at 30 °C overnight. The resistant colonies were transferred to 25% MHBII agar plates containing Api137 (32 or 64 µg/mL) and incubated again at 37 °C overnight. Genomic DNA was isolated by a Monarch® Genomic DNA purification kit (New England Biolabs, Frankfurt am Main, Germany) from the presumed double-resistant strains, and the sequences flanking the transposon insertion were determined by arbitrary primed PCR using arbitrary primer ARB6 and Tn10 transposon-specific primer IS10-R complementary to the IS10 element of Tn10 transposon. The first round of amplification included six cycles of denaturation (95 °C, 30 s), annealing (30 °C, 30 s), and extension (72 °C, 90 s), followed by 30 cycles of denaturation (95 °C, 30 s), annealing (45°C, 30 s), and extension (72 °C, 2 min), as well as a final extension (72 °C, 6 min). The second round of amplification used arbitrary primer ARB2 and primer IS10-R. The PCR consisted of 30 cycles of denaturation (95 °C, 30 s), annealing (52 °C, 30 s), and extension (72 °C, 2 min), followed by a final extension step (72 °C, 6 min). PCR products were purified with the NucleoSpin® Gel and a PCR cleanup kit (Macherey-Nagel, Düren, Germany) and sequenced using primer IS10-R (Eurofins MWG Operon, Ebersberg, Germany), and the corresponding protein was identified in a sequence database (UniProt and NCBI, 2021)."}, "[7]": {"test_system": "E. coli BL21 (DE3) sbmA::Tn10^Cm + psbmA", "type": "cell-based, Escherichia coli", "method": "as §1, §2"}, "[8]": {"conditions": "E. coli Rosetta pLysS lysate, protein ~0.5 g/L; 37 °C; RP-HPLC UV 214 nm", "quoted_text": "(§3) Peptides (7.5 µg) were mixed with lysates of E. coli Rosetta pLysS or E. coli BW25113 (protein concentration ~0.5 g/L) and incubated on an orbital shaker (37 °C, 750 rpm). After 0, 4, 8 and 24 h, aliquots were taken in duplicate or triplicate, and trichloroacetic acid was added to achieve a final concentration of 3% (v/v). Samples were incubated on ice (10 min) and centrifuged (13,000× g, 5 min). The supernatant was neutralized with aqueous sodium hydroxide (1 mol/L) and stored at −20 °C. Samples were separated on an ACQUITY arc system (Waters GmbH, Eschborn, Germany) using a Jupiter C18 column (ID: 2 mm). Elution was achieved using a linear aqueous acetonitrile gradient containing 0.1% (v/v) formic acid. The absorbance was recorded on a 2489 UV/VIS detector at 214 nm (Waters GmbH), and mass spectra were acquired online with an ion trap mass spectrometer equipped with an electrospray ionization source (ESI-IT-MS, Esquire HCT, Bruker Daltonics, Billerica, MA, USA). Peptide recoveries and the corresponding metabolites were calculated based on the peak areas (UV) of the initial peptide peak area at 0 min."}, "in vitro": {"test": "in vitro", "conditions": "E. coli BW25113 lysate", "quoted_text": "as §3"}, "[9]": {"conditions": "25% MHBII containing IPTG (0.1 mmol/L)"}, "[10]": {"conditions": "33% TSB containing IPTG (0.1 mmol/L)"}}, "note": "Read-outs that look alike come from different tables or passages of the source. Peptide text beside a SMILES is read from it. * marks the point of attachment. Orn(α-tetramethylguanidino) = CN(C)C(=N[C@@H](CCCN)C(=O)*)N(C)C", "data": [{"smiles": "CC[C@H](C)[C@H](NC(=O)[C@H](Cc1ccc(O)cc1)NC(=O)[C@@H](NC(=O)[C@@H]1CCCN1C(=O)[C@H](CCCNC(=N)N)NC(=O)[C@H](CC(N)=O)NC(=O)[C@H](CC(N)=O)NC(=O)[C@H](CCCN)N=C(N(C)C)N(C)C)C(C)C)C(=O)N1CCC[C@H]1C(=O)N[C@@H](CCCNC(=N)N)C(=O)N1CCC[C@H]1C(=O)N[C@@H](CCCNC(=N)N)C(=O)N1CCC[C@H]1C(=O)N1CCC[C@H]1C(=O)N[C@@H](Cc1c[nH]cn1)C(=O)N1CCC[C@H]1C(=O)N[C@@H](CCCNC(=N)N)C(=O)N[C@@H](CC(C)C)C(N)=O", "note": "[Api88] ({Orn(α-tetramethylguanidino)}-NNRPVYIPRPRPPHPRL-NH2)", "values": [{"measurement": "Ki", "setting": "[1]", "value": 180, "unit": "nM"}, {"measurement": "Ki", "setting": "[2]", "value": 110, "unit": "nM"}, {"measurement": "inhibition of the binding of cf-labeled Api88", "setting": "[3]", "value": "did not inhibit"}, {"measurement": "Kd", "setting": "[4]", "value": 1220, "unit": "nM"}]}, {"smiles": "CC[C@H](C)[C@H](NC(=O)[C@H](Cc1ccc(O)cc1)NC(=O)[C@@H](NC(=O)[C@@H]1CCCN1C(=O)[C@H](CCCNC(=N)N)NC(=O)[C@H](CC(N)=O)NC(=O)[C@H](CC(N)=O)NC(=O)[C@H](CCCN)N=C(N(C)C)N(C)C)C(C)C)C(=O)N1CCC[C@H]1C(=O)N[C@@H](CCCNC(=N)N)C(=O)N1CCC[C@H]1C(=O)N[C@@H](CCCNC(=N)N)C(=O)N1CCC[C@H]1C(=O)N1CCC[C@H]1C(=O)N[C@@H](Cc1c[nH]cn1)C(=O)N1CCC[C@H]1C(=O)N[C@@H](CCCNC(=N)N)C(=O)N[C@@H](CC(C)C)C(=O)O", "note": "[Api137] ({Orn(α-tetramethylguanidino)}-NNRPVYIPRPRPPHPRL-OH)", "values": [{"measurement": "MIC, 25% MHBII", "setting": "E. coli BW25113 ΔsbmA; [9]", "value": 8, "unit": "µg/mL"}, {"measurement": "MIC, 33% TSB", "setting": "E. coli BW25113 ΔsbmA; [10]", "value": 64, "unit": "µg/mL"}, {"measurement": "MIC, 25% MHBII", "setting": "[5]; [9]", "value": 4, "unit": "µg/mL"}, {"measurement": "MIC, 33% TSB", "setting": "[5]; [10]", "value": 8, "unit": "µg/mL"}, {"measurement": "MIC, 25% MHBII", "setting": "[6]; [9]", "value": 4, "unit": "µg/mL"}, {"measurement": "MIC, 33% TSB", "setting": "[6]; [10]", "value": 8, "unit": "µg/mL"}, {"measurement": "MIC, 25% MHBII", "setting": "[7]; [9]", "value": 8, "unit": "µg/mL"}, {"measurement": "MIC, 33% TSB", "setting": "[7]; [10]", "value": 8, "unit": "µg/mL"}]}, {"smiles": "CC[C@H](C)[C@H](NC(=O)[C@@H]1CCCN1C(=O)[C@H](CCCNC(=N)N)NC(=O)[C@H](CC(N)=O)NC(=O)[C@H](CC(N)=O)NC(=O)CN)C(=O)N[C@@H](Cc1ccc(O)cc1)C(=O)N[C@H](C(=O)N1CCC[C@H]1C(=O)N[C@@H](CCCNC(=N)N)C(=O)N1CCC[C@H]1C(=O)N[C@@H](CCCNC(=N)N)C(=O)N1CCC[C@H]1C(=O)N1CCC[C@H]1C(=O)N[C@@H](Cc1c[nH]cn1)C(=O)N1CCC[C@H]1C(=O)N[C@@H](CCCNC(=N)N)C(=O)N1CCC[C@H]1C(=O)N[C@H](C(=O)N[C@@H](CCCNC(=N)N)C(=O)N[C@H](C(=O)O)C(C)C)[C@@H](C)CC)[C@@H](C)CC", "note": "[Api805] (H-GNNRPIYIPRPRPPHPRPIRV-OH; N-terminus assumed)", "values": [{"measurement": "half-life time in lysate", "setting": "[8]", "value": "> 24", "unit": "h"}, {"measurement": "half-life", "setting": "in vitro", "value": "> 24", "unit": "h"}]}]}
